Data taken from patent US10214512B2, “Factor XIA inhibitors” (MERCK SHARP & DOHME CORP., priority 2015, dated 2019).

Assays:
[1] = biological target: purified Human plasma Kallikrein (Homo sapiens (Human), UniProt P03952); assay: Kallikrein Assay; type: biochemical; conditions: purified Human plasma Kallikrein 0.5 nM; substrate Acetyl-K-P-R-AFC; 50 mM HEPES pH 7.4; Ki from IC50 by Cheng Prusoff
Outline: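 Purified human plasma kallikrein (0.5 nM) with fluorogenic Ac-K-P-R-AFC ([…]) in 50 mM HEPES pH 7.4, 150 mM NaCl, 5 mM CaCl2, 0.1% PEG 8000, at rt or 37 °C. Substrate hydrolysis rate read with and without inhibitor; IC50 from four-parameter logistic fit, converted to Ki by Cheng–Prusoff.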

[2] = biological target: purified human Factor XIa (Homo sapiens (Human), UniProt P03951); assay: Factor XIa Assay; type: biochemical; conditions: purified human Factor XIa 40 pM; substrate Z-Gly-Pro-Arg-AFC 100 μM; 50 mM HEPES pH 7.4; read-out: Human FXIa Ki
purified human Factor XIa, sequence (P03951 388-625): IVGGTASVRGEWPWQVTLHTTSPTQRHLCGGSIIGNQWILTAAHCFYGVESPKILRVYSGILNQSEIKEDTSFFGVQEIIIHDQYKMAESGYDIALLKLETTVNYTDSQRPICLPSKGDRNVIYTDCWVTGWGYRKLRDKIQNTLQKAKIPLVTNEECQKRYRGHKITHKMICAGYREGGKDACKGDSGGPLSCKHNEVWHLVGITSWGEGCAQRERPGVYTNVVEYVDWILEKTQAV
purified human Factor XIa, sequence (P03951 19-387 partner): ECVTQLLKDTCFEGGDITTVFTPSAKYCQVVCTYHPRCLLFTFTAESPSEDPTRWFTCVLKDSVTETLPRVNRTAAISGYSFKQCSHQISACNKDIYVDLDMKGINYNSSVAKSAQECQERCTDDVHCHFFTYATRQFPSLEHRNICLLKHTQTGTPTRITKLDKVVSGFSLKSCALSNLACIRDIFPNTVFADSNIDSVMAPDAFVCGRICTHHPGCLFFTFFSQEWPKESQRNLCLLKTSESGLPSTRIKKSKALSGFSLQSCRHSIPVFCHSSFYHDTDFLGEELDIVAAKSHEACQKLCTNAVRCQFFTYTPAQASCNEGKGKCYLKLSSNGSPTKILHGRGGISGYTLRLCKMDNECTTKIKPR
Outline: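 Ki obtained from the dependence of uninhibited/inhibited initial-velocity ratio on inhibitor concentration, under a competitive-inhibition model. Reactions used 100 μM Z-Gly-Pro-Arg-AFC and 40 pM final human Factor XIa in pH 7.4 HEPES buffer with NaCl, CaCl2 and PEG 8000; run at rt or 37° C following pre-equilibration.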

purified Human plasma Kallikrein, sequence (P03952 391-638): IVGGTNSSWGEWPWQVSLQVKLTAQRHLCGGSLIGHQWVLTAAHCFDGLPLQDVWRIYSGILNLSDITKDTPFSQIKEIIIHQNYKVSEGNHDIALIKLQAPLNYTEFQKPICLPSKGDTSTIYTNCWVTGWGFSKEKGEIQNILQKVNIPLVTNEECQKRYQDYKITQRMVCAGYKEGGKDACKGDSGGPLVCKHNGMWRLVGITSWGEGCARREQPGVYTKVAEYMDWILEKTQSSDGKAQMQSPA
purified Human plasma Kallikrein, sequence (P03952 20-390 partner): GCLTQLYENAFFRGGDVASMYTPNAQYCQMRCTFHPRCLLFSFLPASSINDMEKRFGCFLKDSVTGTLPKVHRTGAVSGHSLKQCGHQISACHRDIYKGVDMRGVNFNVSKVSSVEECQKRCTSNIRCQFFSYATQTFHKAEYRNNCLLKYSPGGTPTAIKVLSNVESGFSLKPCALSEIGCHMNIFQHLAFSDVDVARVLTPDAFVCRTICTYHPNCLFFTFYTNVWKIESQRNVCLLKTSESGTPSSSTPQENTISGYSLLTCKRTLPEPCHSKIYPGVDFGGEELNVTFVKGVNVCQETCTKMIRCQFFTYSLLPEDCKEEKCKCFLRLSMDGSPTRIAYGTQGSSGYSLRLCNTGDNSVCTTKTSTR

SMILES	Ki [1] [nM]	Ki [2] [nM]
O=C1CCCC[C@H](c2ccc(-c3c(F)ccc(Cl)c3F)c[n+]2[O-])c2cccc(c2)-c2ccc(Nc3ncccn3)cc2N1 [Example 48, (S)-5-(3-chloro-2,6-difluorophenyl)-2-(4-oxo-2^4-(pyrimidin-2-YLAMINO)-3-AZA-1 (1,3),2(1,2)-dinenzenacyclononaphane-9-yl)pyridine 1-oxide]	1.76	2.1
COC(=O)Nc1ccc2c(c1)NC(=O)CCCCC(c1ccc(-c3cc(Cl)ccc3-n3cnnn3)cn1)c1cc(F)cc-2c1 (centres unmarked) [Example 51, Methyl (9-(5-(5-chloro-2-(1H-tetrazol-1-yl)phenyl)pyridin-2-yl)-1^5-fluoro-4-oxo-3-aza-1(1,3),2(1,2)-dinenzenacyclononaphane-2^4-yl)carbamate]	46.6	2.76
COC(=O)Nc1ccc2c(c1)NC(=O)CCCCC(c1ccc(-c3cc(Cl)ccc3-n3cnnn3)c[n+]1[O-])c1cc(F)cc-2c1 (centres unmarked) [Example 52, 5-(5-chloro-2-(1h-tetrazol-1-yl)phenyl)-2-(1^5-fluoro-2^4-((methoxycarbonyl)amino)-4-oxo-3-aza-1(1,3),2(1,2) -dinenzenacyclononaphane-9-yl)pyridine 1-oxide]	1.43	0.32
O=C1CCCCC(c2ccc(-c3cc(Cl)ccc3-n3cnnn3)cn2)c2ccnc(c2)-c2cc(F)ccc2N1 (centres unmarked) [Example 56, 9-(5-(5-chloro-2-(1h-tetrazol-1-yl)phenyl)pyridin-2-yl)-25-fluoro-3-aza-1(2,4)-pyridina-2(1,2)-benzenacyclononaphan-4-one]	149	14.1
COC(=O)Nc1ccc2c(c1)NC(=O)CCCCC(c1ccc(-c3cc(Cl)ccc3-n3cnnn3)cn1)c1cc-2ncc1F (centres unmarked) [Example 57, methyl (9-(5-(5-chloro-2-(1h-tetrazol-1-yl)phenyl)pyridin-2-yl)-1^5-fluoro-4-oxo-3-aza-1(2,4)-pyridina-2(1,2)-benzenacyclononaphane-2^4-yl)carbamate]	12.1	0.52
COC(=O)Nc1ccc2c(c1)NC(=O)CCCCC(c1ccc(-c3cc(Cl)ccc3-n3cnnn3)cn1)c1cc-2c(F)cn1 (centres unmarked) [Example 61, methyl (9-(5-(5-chloro-2-(1h-tetrazol-1-yl)phenyl)pyridin-2-yl)-1^5-fluoro-4-oxo-3-aza-1(4,2)-pyridina-2(1,2)-benzenacyclononaphane-2^4-yl)carbamate]	26	1.4
COC(=O)Nc1ccc2c(c1)NC(=O)CCCCC(c1ccc(-c3cc(Cl)ccc3-n3cnnn3)cn1)c1cc-2ncn1 (centres unmarked) [Example 65, methyl (9-(5-(5-chloro-2-(1h-tetrazol-1-yl)phenyl)pyridin-2-yl)-4-oxo-3-aza-1(4,6)-pyrimidina-2(1,2)-benzenacyclononaphane-2^4-yl)carbamate]	6	2.9
O=C1CCCCC(c2ccc(-c3cc(Cl)ccc3-n3cnnn3)c[n+]2[O-])c2ccnc(c2)-c2cc(F)ccc2N1 (centres unmarked) [Example 70, 5-(5-chloro-2-(1H-tetrazol-1-yl)phenyl)-2-(2^5-fluoro-4-oxo-3-aza-1(2,4)-pyridina-2(1,2)-benzenacyclononaphane-9-yl)pyridine 1-oxide]	2.09	0.37
O=C1CCCCC(c2ccc(-c3cc(Cl)ccc3-n3cnnn3)c[n+]2[O-])c2cc[n+]([O-])c(c2)-c2cc(F)ccc2N1 (centres unmarked) [Example 80, 9-(5-(5-chloro-2-(1h-tetrazol-1-yl)phenyl)-1-oxidopyridin-2-yl)-2^5-fluoro-4-oxo-3-aza-1(2,4)-pyridin-1-iuma-2(1,2)-benzenacyclononaphane 1^1-oxide]	13.3	0.59
COC(=O)Nc1ccc2c(c1)NC(=O)CCCCC(c1ccc(-c3c(F)ccc(Cl)c3F)c[n+]1[O-])c1cc-2[n+]([O-])cc1F (centres unmarked) [Example 82, 9-(5-(3-chloro-2,6-difluorophenyl)-1-oxidopyridin-2-yl)-1^5-fluoro-2^4-((methoxycarbonyl)amino)-4-oxo-3-aza-1(2,4)-pyridin-1-iuma-2(1,2)-benzenacyclononaphane 1^1-oxide]	9.58	3.7
